From patent publication US20260132140A1, “IMIDAZOLYL-AMINO-PYRAZINE-CARBONITRILS AS CHK-1 INHIBITORS” (BenevolentAI Bio Limited, priority 2022, published 2026)
Read-outs that look alike come from different tables or passages of the source.

Legend:
human Chk2 kinase [1] = molecular target: T1, human Chk2 kinase (Homo sapiens, UniProt O96017)
human Chk1 kinase = molecular target: T2, human Chk1 kinase (Homo sapiens, UniProt O14757); test: biochemical
T2 sequence (O14757 1-476): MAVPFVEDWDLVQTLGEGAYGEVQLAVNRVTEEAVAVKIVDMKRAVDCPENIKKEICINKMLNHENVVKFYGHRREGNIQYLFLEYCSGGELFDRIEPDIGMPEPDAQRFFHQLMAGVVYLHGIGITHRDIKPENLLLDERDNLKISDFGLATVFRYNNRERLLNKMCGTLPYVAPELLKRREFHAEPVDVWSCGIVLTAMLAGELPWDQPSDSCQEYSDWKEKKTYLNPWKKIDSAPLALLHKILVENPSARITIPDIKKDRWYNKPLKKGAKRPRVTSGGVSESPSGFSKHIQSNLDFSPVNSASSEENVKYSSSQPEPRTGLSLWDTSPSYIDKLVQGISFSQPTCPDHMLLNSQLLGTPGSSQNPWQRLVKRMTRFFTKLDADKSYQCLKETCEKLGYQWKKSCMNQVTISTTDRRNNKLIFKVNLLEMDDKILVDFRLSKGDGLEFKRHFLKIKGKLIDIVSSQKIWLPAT

RSK2 = molecular target: T3, RSK2 (Homo sapiens, UniProt P51812); test: RSK1-4 kinase assay (Eurofins KinaseProfiler, radiometric): RSK2; assay type: biochemical; settings: approximately ATP Km
T3 construct: purchased Eurofins (KinaseProfiler service)
From the text: (§1) The radiometric kinase activity assays were run at approximately the ATP Km for each kinase and the IC50 data is shown in Table 24.

RSK1 = molecular target: T4, RSK1 (Homo sapiens, UniProt Q15418); test: RSK1-4 kinase assay (Eurofins KinaseProfiler, radiometric): RSK1; assay type: biochemical; settings: approximately ATP Km
T4 construct: purchased Eurofins (KinaseProfiler service)
From the text: as §1

RSK4 = molecular target: T5, RSK4 (Homo sapiens, UniProt Q9UK32); test: RSK1-4 kinase assay (Eurofins KinaseProfiler, radiometric): RSK4; assay type: biochemical; settings: approximately ATP Km
T5 construct: purchased Eurofins (KinaseProfiler service)
From the text: as §1

RSK3 = molecular target: T6, RSK3 (Homo sapiens, UniProt Q15349); test: RSK1-4 kinase assay (Eurofins KinaseProfiler, radiometric): RSK3; assay type: biochemical; settings: approximately ATP Km
T6 construct: purchased Eurofins (KinaseProfiler service)
From the text: as §1

GBM LN18 cells = test: In vitro cell viability assay (Cell Titre Glo, 72 hours); assay type: cell-based; settings: Homo sapiens, LN-18, read-out: LN18 pIC50 (converted)
Method: GBM LN18 cells were incubated with increasing concentrations of selected compounds of the invention for 72 hours prior to the measurement of ATP in metabolically viable cells with the Cell Titre® Glo Luminescent reagent. A 10-point concentration response curve up to a maximum concentration of 10 μM was tested.
The percent (%) effect i.e., inhibition at each concentration of compound was calculated based on, and relative to the amount of inhibition produced in the vehicle control and inhibited control wells contained within each plate.

[2] = tested on: pChk1(Ser296) in SW620 cells; test: pChk1(Ser296) sandwich ELISA, cell-based on-target kinase activity; settings: Homo sapiens, read-out: SW620 pIC50 (converted)
Method: ELISA assays were performed as per the manufacturer's protocol. […] Selected compounds of the invention were tested as a 8-point concentration response up to a maximum concentration of either 1 μM, 3 μM or 10 μM. The percent (%) effect i.e. inhibition at each concentration of compound was calculated based on, and relative to, the amount of inhibition produced in the vehicle control and inhibited control wells contained within each plate.

human Chk2 kinase [3] = molecular target: T1, human Chk2 kinase; test: biochemical
[4] = SW-620, neocarzinostatin 7.5 μM, 2 hours
[5] = SW-620, 2 h, neocarzinostatin 7.5 μM

T3 sequence (P51812 whole entry): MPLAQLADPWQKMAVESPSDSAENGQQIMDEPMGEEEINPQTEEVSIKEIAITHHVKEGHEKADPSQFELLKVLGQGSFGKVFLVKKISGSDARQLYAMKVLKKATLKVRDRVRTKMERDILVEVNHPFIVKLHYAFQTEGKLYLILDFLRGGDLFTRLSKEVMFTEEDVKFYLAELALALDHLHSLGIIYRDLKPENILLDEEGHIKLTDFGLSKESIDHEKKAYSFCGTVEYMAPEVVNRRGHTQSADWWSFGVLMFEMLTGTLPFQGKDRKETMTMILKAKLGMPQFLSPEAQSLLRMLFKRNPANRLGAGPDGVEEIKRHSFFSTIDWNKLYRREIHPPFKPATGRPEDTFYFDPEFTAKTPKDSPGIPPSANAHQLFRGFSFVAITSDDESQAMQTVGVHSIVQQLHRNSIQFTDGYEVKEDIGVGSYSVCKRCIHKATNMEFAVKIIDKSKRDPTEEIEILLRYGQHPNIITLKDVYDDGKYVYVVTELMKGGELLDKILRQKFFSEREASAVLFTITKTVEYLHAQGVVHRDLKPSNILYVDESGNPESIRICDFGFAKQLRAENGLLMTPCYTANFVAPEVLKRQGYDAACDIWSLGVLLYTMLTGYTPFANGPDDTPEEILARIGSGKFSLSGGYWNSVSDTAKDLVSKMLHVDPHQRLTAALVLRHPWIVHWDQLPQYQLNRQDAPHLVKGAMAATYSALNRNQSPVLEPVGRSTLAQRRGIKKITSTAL
T5 sequence (Q9UK32 whole entry): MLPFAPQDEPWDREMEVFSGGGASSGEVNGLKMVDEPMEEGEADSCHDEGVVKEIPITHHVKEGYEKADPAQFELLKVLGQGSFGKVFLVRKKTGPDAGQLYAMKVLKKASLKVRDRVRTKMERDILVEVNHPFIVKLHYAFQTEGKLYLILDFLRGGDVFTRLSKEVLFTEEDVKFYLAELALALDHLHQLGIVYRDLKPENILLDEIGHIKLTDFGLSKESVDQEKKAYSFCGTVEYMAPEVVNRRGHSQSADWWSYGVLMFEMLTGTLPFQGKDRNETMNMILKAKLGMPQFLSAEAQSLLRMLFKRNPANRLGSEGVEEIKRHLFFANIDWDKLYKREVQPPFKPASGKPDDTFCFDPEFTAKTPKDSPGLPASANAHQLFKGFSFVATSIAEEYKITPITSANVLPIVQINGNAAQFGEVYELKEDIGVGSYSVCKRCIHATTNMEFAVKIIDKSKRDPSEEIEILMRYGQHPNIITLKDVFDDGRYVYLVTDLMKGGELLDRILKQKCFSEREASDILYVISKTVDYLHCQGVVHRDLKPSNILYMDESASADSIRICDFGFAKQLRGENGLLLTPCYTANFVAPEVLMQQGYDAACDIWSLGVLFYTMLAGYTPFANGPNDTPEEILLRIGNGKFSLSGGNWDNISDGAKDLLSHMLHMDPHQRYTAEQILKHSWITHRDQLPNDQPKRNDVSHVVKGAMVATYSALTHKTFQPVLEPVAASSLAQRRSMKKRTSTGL
T1 sequence (O96017 whole entry): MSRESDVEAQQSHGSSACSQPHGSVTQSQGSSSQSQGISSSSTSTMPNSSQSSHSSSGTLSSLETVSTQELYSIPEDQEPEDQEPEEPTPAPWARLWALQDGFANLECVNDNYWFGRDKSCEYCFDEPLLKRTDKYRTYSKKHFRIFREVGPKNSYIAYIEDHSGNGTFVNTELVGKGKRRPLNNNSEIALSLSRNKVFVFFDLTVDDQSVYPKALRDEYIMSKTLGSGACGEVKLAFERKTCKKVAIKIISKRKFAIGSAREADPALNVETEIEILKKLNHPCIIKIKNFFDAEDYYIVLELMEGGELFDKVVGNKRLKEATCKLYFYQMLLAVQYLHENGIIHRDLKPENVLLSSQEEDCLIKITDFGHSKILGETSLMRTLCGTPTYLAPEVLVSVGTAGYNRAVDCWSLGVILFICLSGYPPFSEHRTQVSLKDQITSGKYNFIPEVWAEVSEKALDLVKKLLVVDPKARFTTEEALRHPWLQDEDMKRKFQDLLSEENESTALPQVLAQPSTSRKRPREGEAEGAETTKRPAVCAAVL
T6 sequence (Q15349 whole entry): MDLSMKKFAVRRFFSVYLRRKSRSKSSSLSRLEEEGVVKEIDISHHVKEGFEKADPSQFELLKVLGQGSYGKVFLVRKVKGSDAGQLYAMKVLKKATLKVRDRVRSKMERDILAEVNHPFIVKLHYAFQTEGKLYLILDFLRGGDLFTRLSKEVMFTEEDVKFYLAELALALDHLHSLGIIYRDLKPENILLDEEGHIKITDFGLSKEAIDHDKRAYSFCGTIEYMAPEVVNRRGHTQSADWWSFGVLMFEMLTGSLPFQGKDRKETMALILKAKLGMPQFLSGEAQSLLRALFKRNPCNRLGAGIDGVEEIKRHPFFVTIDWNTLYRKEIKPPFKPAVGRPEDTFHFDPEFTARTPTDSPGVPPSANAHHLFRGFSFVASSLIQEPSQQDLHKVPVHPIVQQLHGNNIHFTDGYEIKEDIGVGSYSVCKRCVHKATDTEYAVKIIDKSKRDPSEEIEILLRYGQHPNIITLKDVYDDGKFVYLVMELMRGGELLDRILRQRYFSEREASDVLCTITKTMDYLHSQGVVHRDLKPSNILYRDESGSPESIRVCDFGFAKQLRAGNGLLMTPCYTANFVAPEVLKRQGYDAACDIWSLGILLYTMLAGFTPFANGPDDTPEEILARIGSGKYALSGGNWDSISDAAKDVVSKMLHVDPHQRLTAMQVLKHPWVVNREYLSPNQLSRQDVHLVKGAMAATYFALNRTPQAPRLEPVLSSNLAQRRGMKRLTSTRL
T4 sequence (Q15418 whole entry): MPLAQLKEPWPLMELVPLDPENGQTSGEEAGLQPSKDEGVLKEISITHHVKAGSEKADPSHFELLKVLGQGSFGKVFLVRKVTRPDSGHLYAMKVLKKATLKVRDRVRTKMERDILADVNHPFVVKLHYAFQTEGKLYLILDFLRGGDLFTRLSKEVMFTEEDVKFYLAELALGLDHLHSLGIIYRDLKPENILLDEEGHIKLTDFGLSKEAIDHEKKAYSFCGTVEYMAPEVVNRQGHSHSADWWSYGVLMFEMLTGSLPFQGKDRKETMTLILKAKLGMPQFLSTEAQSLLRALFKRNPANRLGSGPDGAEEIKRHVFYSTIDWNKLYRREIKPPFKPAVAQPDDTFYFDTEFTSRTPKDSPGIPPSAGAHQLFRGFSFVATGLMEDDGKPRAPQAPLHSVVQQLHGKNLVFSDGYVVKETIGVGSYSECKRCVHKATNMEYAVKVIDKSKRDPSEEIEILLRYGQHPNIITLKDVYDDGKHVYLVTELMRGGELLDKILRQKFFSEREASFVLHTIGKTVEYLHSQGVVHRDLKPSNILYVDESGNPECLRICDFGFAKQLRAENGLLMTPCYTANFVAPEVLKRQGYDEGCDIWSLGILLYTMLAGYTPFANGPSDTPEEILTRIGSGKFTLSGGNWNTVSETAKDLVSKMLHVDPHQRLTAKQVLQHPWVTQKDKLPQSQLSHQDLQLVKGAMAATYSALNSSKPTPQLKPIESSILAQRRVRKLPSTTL

## CN1CCOC(c2ccc(-n3cnc(Nc4cnc(C#N)cn4)c3)cc2)C1 (single isomer, unassigned) [Example 106, 5-((1-(4-(4-Methylmorpholin-2-yl)phenyl)-1H-imidazol-4-yl)amino)pyrazine-2-carbonitrile]
Human Chk2 kinase [1]
  IC50: 10000 to 100000 nM

## CN(C)CC1CN(c2cccc(-n3cnc(Nc4cnc(C#N)cn4)c3)c2)CCO1 (single isomer, unassigned) [Example 108, 5-((1-(3-(2-((Dimethylamino)methyl)morpholino)phenyl)-1H-imidazol-4-yl)amino)pyrazine-2-carbonitrile]
Human Chk1 kinase
  IC50: 10 to 31.6 nM
Human Chk2 kinase [1]
  IC50: 10000 to 100000 nM

## CN(C)C1CCCN(c2cccc(-n3cnc(Nc4cnc(C#N)cn4)c3)c2)C1 (single isomer, unassigned) [Example 112, 5-((1-(3-(3-(Dimethylamino)piperidin-1-yl)phenyl)-1H-imidazol-4-yl)amino)pyrazine-2-carbonitrile]
Human Chk2 kinase [1]
  IC50: 10000 to 100000 nM

## N#Cc1cnc(Nc2cn(-c3ccc(N4CCN5CCCC5C4)cc3)cn2)cn1 (single isomer, unassigned) [Example 118, 5-((1-(4-(Hexahydropyrrolo[1,2-a]pyrazin-2(1H)-yl)phenyl)-1H-imidazol-4-yl)amino)pyrazine-2-carbonitrile]
Human Chk2 kinase [1]
  IC50: > 100000 nM

## CN1CCC12CCN(c1ccc(-n3cnc(Nc4cnc(C#N)cn4)c3)cc1)C2 (single isomer, unassigned) [Example 128, 5-((1-(4-(1-Methyl-1,6-diazaspiro[3.4]octan-6-yl)phenyl)-1H-imidazol-4-yl)amino)pyrazine-2-carbonitrile]
Human Chk2 kinase [1]
  IC50: > 100000 nM

## N#Cc1cnc(Nc2cn(-c3ccc(N4CCC(N5CC6(CCC6)C5)C4)cc3)cn2)cn1 (single isomer, unassigned) [Example 132, 5-((1-(4-(3-(2-Azaspiro[3.3]heptan-2-yl)pyrrolidin-1-yl)phenyl)-1H-imidazol-4-yl)amino)pyrazine-2-carbonitrile]
Human Chk2 kinase [1]
  IC50: 1000 to 10000 nM

## N#Cc1cnc(Nc2cn(-c3cccc(N4CCC(N)C(F)(F)C4)c3)cn2)cn1 (single isomer, unassigned) [Example 167, 5-((1-(3-(4-Amino-3,3-difluoropiperidin-1-yl)phenyl)-1H-imidazol-4-yl)amino)pyrazine-2-carbonitrile]
Human Chk2 kinase [1]
  IC50: > 100000 nM

## COc1cccc(OCCCN)c1-c1cc(Nc2cnc(C#N)cn2)n[nH]1 [Comparator Ex. 1, 5-((5-(2-(3-Aminopropoxy)-6-methoxyphenyl)-1H-pyrazol-3-yl)amino)pyrazine-2-carbonitrile, reference compound]
RSK2
  IC50: 2 nM
RSK1
  IC50: 20 nM
RSK4
  IC50: 5 nM
RSK3
  IC50: 4 nM

## COc1cc(N2CCN(C)CC2)ccc1-c1cc(Nc2cnc(C#N)cn2)n[nH]1 [Comparator Ex. 2, 5-((5-(2-Methoxy-4-(4-methylpiperazin-1-yl)phenyl)-1H-pyrazol-3-yl)amino)pyrazine-2-carbonitrile, reference compound]
RSK2
  IC50: 80 nM
RSK1
  IC50: 259 nM
RSK4
  IC50: 77 nM
RSK3
  IC50: 24 nM

## CCNCc1ccc(-c2cc(Nc3cnc(C#N)cn3)n[nH]2)c(OC)c1 [Comparator Ex. 3, 5-((5-(4-((Ethylamino)methyl)-2-methoxyphenyl)-1H-pyrazol-3-yl)amino)pyrazine-2-carbonitrile, reference compound]
RSK2
  IC50: 172 nM
RSK1
  IC50: 570 nM
RSK4
  IC50: 163 nM
RSK3
  IC50: 60 nM

## CN1CCC(F)(c2ccc(-n3cnc(Nc4cnc(C#N)cn4)c3)cc2)CC1 [Example 4, 5-((1-(4-(4-Fluoro-1-methylpiperidin-4-yl)phenyl)-1H-imidazol-4-yl)amino)pyrazine-2-carbonitrile]
RSK2
  IC50: 2460 nM
RSK1
  IC50: > 10000 nM
RSK4
  IC50: 4960 nM
RSK3
  IC50: 2210 nM

## CN(C)[C@@H]1CCN(c2ccc(-n3cnc(Nc4cnc(C#N)cn4)c3)cc2)C1 [Example 12, (R)-5-((1-(4-(3-(Dimethylamino)pyrrolidin-1-yl)phenyl)-1H-imidazol-4-yl)amino)pyrazine-2-carbonitrile]
RSK2
  IC50: 6620 nM
GBM LN18 cells
  IC50: < 1000 nM
Human Chk1 kinase
  IC50: < 10 nM
RSK1
  IC50: > 10000 nM
RSK4
  IC50: 9200 nM
[2]; [4]
  IC50: < 1000 nM
RSK3
  IC50: 4340 nM

## CN1CCC12CN(c1ccc(-n3cnc(Nc4cnc(C#N)cn4)c3)cc1)C2 [Example 61, 5-((1-(4-(1-Methyl-1,6-diazaspiro[3.3]heptan-6-yl)phenyl)-1H-imidazol-4-yl)amino)pyrazine-2-carbonitrile]
RSK2
  IC50: 2670 nM
Human Chk1 kinase
  IC50: 10 to 31.6 nM
Human Chk2 kinase [3]
  IC50: 10000 to 100000 nM
RSK1
  IC50: 6780 nM
RSK4
  IC50: 4070 nM
RSK3
  IC50: 1920 nM

## C[C@H]1CN(c2ccc(-n3cnc(Nc4cnc(C#N)cn4)c3)cc2)C[C@@H]1N(C)C [Example 73, 5-((1-(4-((3R,4S)-3-(Dimethylamino)-4-methylpyrrolidin-1-yl)phenyl)-1H-imidazol-4-yl)amino)pyrazine-2-carbonitrile]
GBM LN18 cells
  IC50: < 1000 nM
Human Chk1 kinase
  IC50: < 10 nM
Human Chk2 kinase [3]
  IC50: 1000 to 10000 nM
[2]; [4]
  IC50: < 1000 nM

## CN(C)[C@]1(C)CCN(c2ccc(-n3cnc(Nc4cnc(C#N)cn4)c3)cc2)C1 [Example 78, (R)-5-((1-(4-(3-(Dimethylamino)-3-methylpyrrolidin-1-yl)phenyl)-1H-imidazol-4-yl)amino)pyrazine-2-carbonitrile]
GBM LN18 cells
  IC50: < 1000 nM
Human Chk1 kinase
  IC50: < 10 nM
Human Chk2 kinase [3]
  IC50: 1000 to 10000 nM
[2]; [4]
  IC50: < 1000 nM

## C[C@@H]1C[C@@H](N(C)C)CN1c1ccc(-n2cnc(Nc3cnc(C#N)cn3)c2)nc1 [Example 85, 5-((1-(5-((2R,4R)-4-(Dimethylamino)-2-methylpyrrolidin-1-yl)pyridin-2-yl)-1H-imidazol-4-yl)amino)pyrazine-2-carbonitrile]
GBM LN18 cells
  IC50: < 1000 nM
Human Chk1 kinase
  IC50: < 10 nM
Human Chk2 kinase [3]
  IC50: 1000 to 10000 nM
[2]; [5]
  IC50: < 1000 nM

## CN[C@H]1CN(c2ccc(-n3cnc(Nc4cnc(C#N)cn4)c3)cc2)C[C@H]1F [Example 92, 5-((1-(4-((3R,4S)-3-Fluoro-4-(methylamino)pyrrolidin-1-yl)phenyl)-1H-imidazol-4-yl)amino)pyrazine-2-carbonitrile]
GBM LN18 cells
  IC50: < 1000 nM
Human Chk1 kinase
  IC50: < 10 nM
Human Chk2 kinase [3]
  IC50: 1000 to 10000 nM
[2]; [5]
  IC50: < 1000 nM

## N#Cc1cnc(Nc2cn(-c3ccc(N4CC[C@@H](N)C4)cc3)cn2)cn1 [Example 153, (R)-5-((1-(4-(3-Aminopyrrolidin-1-yl)phenyl)-1H-imidazol-4-yl)amino)pyrazine-2-carbonitrile]
GBM LN18 cells
  IC50: 1000 to 10000 nM
Human Chk1 kinase
  IC50: 10 to 31.6 nM
Human Chk2 kinase [3]
  IC50: 1000 to 10000 nM
[2]; [5]
  IC50: 1000 to 10000 nM

## N#Cc1cnc(Nc2cn(-c3ccc(N4C[C@H](N)C5(CC5)C4)cc3)cn2)cn1 [Example 154, (R)-5-((1-(4-(7-Amino-5-azaspiro[2.4]heptan-5-yl)phenyl)-1H-imidazol-4-yl)amino)pyrazine-2-carbonitrile]
GBM LN18 cells
  IC50: < 1000 nM
Human Chk1 kinase
  IC50: < 10 nM
Human Chk2 kinase [3]
  IC50: 1000 to 10000 nM
[2]; [5]
  IC50: 1000 to 10000 nM

## C[C@@]1(N)CCN(c2ccc(-n3cnc(Nc4cnc(C#N)cn4)c3)cc2)C1 [Example 156, (R)-5-((1-(4-(3-Amino-3-methylpyrrolidin-1-yl)phenyl)-1H-imidazol-4-yl)amino)pyrazine-2-carbonitrile]
GBM LN18 cells
  IC50: < 1000 nM
Human Chk1 kinase
  IC50: 10 to 31.6 nM
Human Chk2 kinase [3]
  IC50: 10000 to 100000 nM
[2]; [5]
  IC50: 1000 to 10000 nM

## N#Cc1cnc(Nc2cn(-c3ccccc3OCCCN)cn2)cn1 [Example 168, 5-((1-(2-(3-Aminopropoxy)phenyl)-1H-imidazol-4-yl)amino)pyrazine-2-carbonitrile]
RSK2
  IC50: 7070 nM
GBM LN18 cells
  IC50: 1000 to 10000 nM
RSK1
  IC50: > 10000 nM
RSK4
  IC50: > 10000 nM
[2]; [4]
  IC50: 1000 to 10000 nM
RSK3
  IC50: 5830 nM
